#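 Tested at 5 concentrations; 48 h exposure; 96-well plates; endpoints linearly interpolated, else capped at highest concentration. At the TGI there is no net growth.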
# How the values were obtained:
# Test in all cases: NCI-60 cell line screen, 48 h
# 786-0 renal = tested on: 786-0 renal
# A498 renal = tested on: A498 renal
# A549 NSCLC = tested on: A549 NSCLC
# ACHN renal = tested on: ACHN renal
# BT-549 breast = tested on: BT-549 breast
# CAKI-1 renal = tested on: CAKI-1 renal
# CCRF-CEM leukemia = tested on: CCRF-CEM leukemia
# COLO 205 colon = tested on: COLO 205 colon
# DU-145 prostate = tested on: DU-145 prostate
# EKVX NSCLC = tested on: EKVX NSCLC
# HCC-2998 colon = tested on: HCC-2998 colon
# HCT-116 colon = tested on: HCT-116 colon
# HCT-15 colon = tested on: HCT-15 colon
# HL-60(TB) leukemia = tested on: HL-60(TB) leukemia
# HOP-62 NSCLC = tested on: HOP-62 NSCLC
# HOP-92 NSCLC = tested on: HOP-92 NSCLC
# HS 578T breast = tested on: HS 578T breast
# HT29 colon = tested on: HT29 colon
# IGROV1 ovarian = tested on: IGROV1 ovarian
# KM12 colon = tested on: KM12 colon
# LOX IMVI melanoma = tested on: LOX IMVI melanoma
# M14 melanoma = tested on: M14 melanoma
# MALME-3M melanoma = tested on: MALME-3M melanoma
# MCF7 breast = tested on: MCF7 breast
# MDA-MB-231 breast = tested on: MDA-MB-231 breast
# MDA-MB-435 = tested on: MDA-MB-435
# MDA-N = tested on: MDA-N
# MOLT-4 leukemia = tested on: MOLT-4 leukemia
# NCI-H226 lung = tested on: NCI-H226 lung
# NCI-H23 lung = tested on: NCI-H23 lung
# NCI-H460 lung = tested on: NCI-H460 lung
# NCI-H522 lung = tested on: NCI-H522 lung
# NCI/ADR-RES ovarian = tested on: NCI/ADR-RES ovarian
# OVCAR-3 ovarian = tested on: OVCAR-3 ovarian
# OVCAR-4 ovarian = tested on: OVCAR-4 ovarian
# OVCAR-5 ovarian = tested on: OVCAR-5 ovarian
# OVCAR-8 ovarian = tested on: OVCAR-8 ovarian
# PC-3 prostate = tested on: PC-3 prostate
# RPMI-8226 leukemia = tested on: RPMI-8226 leukemia
# RXF 393 renal = tested on: RXF 393 renal
# SF-268 CNS = tested on: SF-268 CNS
# SF-295 CNS = tested on: SF-295 CNS
# SF-539 CNS = tested on: SF-539 CNS
# SK-MEL-2 melanoma = tested on: SK-MEL-2 melanoma
# SK-MEL-28 melanoma = tested on: SK-MEL-28 melanoma
# SK-MEL-5 melanoma = tested on: SK-MEL-5 melanoma
# SK-OV-3 ovarian = tested on: SK-OV-3 ovarian
# SN12C renal = tested on: SN12C renal
# SNB-19 CNS = tested on: SNB-19 CNS
# SR leukemia = tested on: SR leukemia
# SW-620 colon = tested on: SW-620 colon
# T-47D breast = tested on: T-47D breast
# TK-10 renal = tested on: TK-10 renal
# U251 CNS = tested on: U251 CNS
# UACC-257 melanoma = tested on: UACC-257 melanoma
# UACC-62 melanoma = tested on: UACC-62 melanoma
# UO-31 renal = tested on: UO-31 renal
# K-562 leukemia = tested on: K-562 leukemia
# SNB-75 CNS = tested on: SNB-75 CNS
compound,measurement,setting,value
O=C1c2ccc(O)cc2OC(c2cc(O)c(O)c(O)c2)C1O (stereo not given),TGI,786-0 renal,45.4 µM
same,TGI,A498 renal,73.5 µM
same,TGI,A549 NSCLC,> 100 µM
same,TGI,ACHN renal,48.9 µM
same,TGI,BT-549 breast,48 µM
same,TGI,CAKI-1 renal,> 100 µM
same,TGI,CCRF-CEM leukemia,55.9 µM
same,TGI,COLO 205 colon,83.3 µM
same,TGI,DU-145 prostate,> 100 µM
same,TGI,EKVX NSCLC,39.3 µM
same,TGI,HCC-2998 colon,> 100 µM
same,TGI,HCT-116 colon,41 µM
same,TGI,HCT-15 colon,> 100 µM
same,TGI,HL-60(TB) leukemia,48.4 µM
same,TGI,HOP-62 NSCLC,> 100 µM
same,TGI,HOP-92 NSCLC,> 100 µM
same,TGI,HS 578T breast,> 100 µM
same,TGI,HT29 colon,43.9 µM
same,TGI,IGROV1 ovarian,39.1 µM
same,TGI,KM12 colon,67.1 µM
same,TGI,LOX IMVI melanoma,38.5 µM
same,TGI,M14 melanoma,> 100 µM
same,TGI,MALME-3M melanoma,> 100 µM
same,TGI,MCF7 breast,51.9 µM
same,TGI,MDA-MB-231 breast,39.7 µM
same,TGI,MDA-MB-435,43.2 µM
same,TGI,MDA-N,34 µM
same,TGI,MOLT-4 leukemia,51.7 µM
same,TGI,NCI-H226 lung,> 100 µM
same,TGI,NCI-H23 lung,> 100 µM
same,TGI,NCI-H460 lung,39.5 µM
same,TGI,NCI-H522 lung,58.7 µM
same,TGI,NCI/ADR-RES ovarian,52.9 µM
same,TGI,OVCAR-3 ovarian,> 100 µM
same,TGI,OVCAR-4 ovarian,> 100 µM
same,TGI,OVCAR-5 ovarian,> 100 µM
same,TGI,OVCAR-8 ovarian,38.4 µM
same,TGI,PC-3 prostate,> 100 µM
same,TGI,RPMI-8226 leukemia,48.6 µM
same,TGI,RXF 393 renal,> 100 µM
same,TGI,SF-268 CNS,> 100 µM
same,TGI,SF-295 CNS,39.9 µM
same,TGI,SF-539 CNS,52.7 µM
same,TGI,SK-MEL-2 melanoma,> 100 µM
same,TGI,SK-MEL-28 melanoma,> 100 µM
same,TGI,SK-MEL-5 melanoma,> 100 µM
same,TGI,SK-OV-3 ovarian,> 100 µM
same,TGI,SN12C renal,36.6 µM
same,TGI,SNB-19 CNS,> 100 µM
same,TGI,SR leukemia,56.5 µM
same,TGI,SW-620 colon,70.3 µM
same,TGI,T-47D breast,85.9 µM
same,TGI,TK-10 renal,69.3 µM
same,TGI,U251 CNS,48.7 µM
same,TGI,UACC-257 melanoma,> 100 µM
same,TGI,UACC-62 melanoma,> 100 µM
same,TGI,UO-31 renal,> 100 µM
O=C(O)c1ccccc1CC1Cc2ccccc2C1,TGI,786-0 renal,> 100 µM
same,TGI,A549 NSCLC,> 100 µM
same,TGI,ACHN renal,> 100 µM
same,TGI,BT-549 breast,> 100 µM
same,TGI,CAKI-1 renal,> 100 µM
same,TGI,CCRF-CEM leukemia,> 100 µM
same,TGI,COLO 205 colon,> 100 µM
same,TGI,DU-145 prostate,> 100 µM
same,TGI,EKVX NSCLC,> 100 µM
same,TGI,HCC-2998 colon,> 100 µM
same,TGI,HCT-116 colon,> 100 µM
same,TGI,HCT-15 colon,> 100 µM
same,TGI,HL-60(TB) leukemia,> 100 µM
same,TGI,HOP-62 NSCLC,> 100 µM
same,TGI,HOP-92 NSCLC,> 100 µM
same,TGI,HS 578T breast,> 100 µM
same,TGI,HT29 colon,> 100 µM
same,TGI,IGROV1 ovarian,> 100 µM
same,TGI,K-562 leukemia,> 100 µM
same,TGI,KM12 colon,> 100 µM
same,TGI,LOX IMVI melanoma,> 100 µM
same,TGI,M14 melanoma,> 100 µM
same,TGI,MALME-3M melanoma,> 100 µM
same,TGI,MCF7 breast,> 100 µM
same,TGI,MDA-MB-231 breast,> 100 µM
same,TGI,MDA-MB-435,> 100 µM
same,TGI,MDA-N,> 100 µM
same,TGI,MOLT-4 leukemia,> 100 µM
same,TGI,NCI-H226 lung,> 100 µM
same,TGI,NCI-H23 lung,> 100 µM
same,TGI,NCI-H460 lung,> 100 µM
same,TGI,NCI-H522 lung,> 100 µM
same,TGI,NCI/ADR-RES ovarian,> 100 µM
same,TGI,OVCAR-3 ovarian,> 100 µM
same,TGI,OVCAR-4 ovarian,> 100 µM
same,TGI,OVCAR-5 ovarian,> 100 µM
same,TGI,OVCAR-8 ovarian,> 100 µM
same,TGI,PC-3 prostate,> 100 µM
same,TGI,RPMI-8226 leukemia,> 100 µM
same,TGI,RXF 393 renal,> 100 µM
same,TGI,SF-268 CNS,> 100 µM
same,TGI,SF-295 CNS,> 100 µM
same,TGI,SF-539 CNS,> 100 µM
same,TGI,SK-MEL-2 melanoma,> 100 µM
same,TGI,SK-MEL-28 melanoma,> 100 µM
same,TGI,SK-MEL-5 melanoma,> 100 µM
same,TGI,SK-OV-3 ovarian,> 100 µM
same,TGI,SN12C renal,> 100 µM
same,TGI,SNB-19 CNS,> 100 µM
same,TGI,SNB-75 CNS,> 100 µM
same,TGI,SR leukemia,> 100 µM
same,TGI,SW-620 colon,> 100 µM
same,TGI,T-47D breast,> 100 µM
same,TGI,TK-10 renal,> 100 µM
same,TGI,U251 CNS,> 100 µM
same,TGI,UACC-257 melanoma,> 100 µM
same,TGI,UACC-62 melanoma,> 100 µM
same,TGI,UO-31 renal,> 100 µM
